Results taken from PubChem BioAssay (NCI).
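Test compounds were applied to cells in 96-well plates for 48 hours at 5 doses. Here, GI50 denotes the concentration required for 50% inhibition of growth. TGI: concentration producing complete growth inhibition.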

Columns and labels:
Assay in all cases: growth of human tumour cells (NCI), 48 h
[1] = tested on: SW-620 colon
[2] = tested on: UACC-257 melanoma
[3] = tested on: BT-549 breast
[4] = tested on: UO-31 renal
[5] = tested on: HT29 colon
[6] = tested on: EKVX NSCLC
[7] = tested on: SF-268 CNS
[8] = tested on: SK-MEL-2 melanoma
[9] = tested on: MALME-3M melanoma
[10] = tested on: MDA-MB-231 breast
[11] = tested on: SK-MEL-5 melanoma
[12] = tested on: NCI-H23 lung
[13] = tested on: A498 renal
[14] = tested on: KM12 colon
[15] = tested on: SNB-19 CNS
[16] = tested on: 786-0 renal
[17] = tested on: U251 CNS
[18] = tested on: RXF 393 renal
[19] = tested on: SF-295 CNS
[20] = tested on: OVCAR-8 ovarian
[21] = tested on: HCT-15 colon
[22] = tested on: NCI-H226 lung
[23] = tested on: M14 melanoma
[24] = tested on: SN12C renal
[25] = tested on: NCI-H460 lung
[26] = tested on: NCI/ADR-RES ovarian
[27] = tested on: A549 NSCLC
[28] = tested on: DU-145 prostate
[29] = tested on: NCI-H522 lung
[30] = tested on: MOLT-4 leukemia
[31] = tested on: HS 578T breast
[32] = tested on: SK-OV-3 ovarian
[33] = tested on: HOP-92 NSCLC
[34] = tested on: HOP-62 NSCLC
[35] = tested on: OVCAR-5 ovarian
[36] = tested on: OVCAR-3 ovarian
[37] = tested on: SNB-75 CNS
[38] = tested on: HCC-2998 colon
[39] = tested on: HCT-116 colon
[40] = tested on: ACHN renal
[41] = tested on: PC-3 prostate
[42] = tested on: SK-MEL-28 melanoma
[43] = tested on: UACC-62 melanoma
[44] = tested on: IGROV1 ovarian
[45] = tested on: COLO 205 colon
[46] = tested on: T-47D breast
[47] = tested on: K-562 leukemia
[48] = tested on: OVCAR-4 ovarian
[49] = tested on: HL-60(TB) leukemia
[50] = tested on: RPMI-8226 leukemia
[51] = tested on: CCRF-CEM leukemia
[52] = tested on: MCF7 breast
[53] = tested on: MDA-MB-435
[54] = tested on: TK-10 renal
[55] = tested on: CAKI-1 renal
[56] = tested on: LOX IMVI melanoma

SMILES: O=C(Nc1ccccc1)Nc1ccc(Cl)c(Cl)c1
- GI50 [1]: 3.58 µM
- TGI [1]: > 100 µM
- GI50 [2]: 3.73 µM
- TGI [2]: 32.9 µM
- GI50 [3]: 4.99 µM
- TGI [3]: 85.9 µM
- GI50 [4]: 2.62 µM
- TGI [4]: 21.9 µM
- GI50 [5]: 2.85 µM
- TGI [5]: 20.2 µM
- GI50 [6]: 2.93 µM
- TGI [6]: > 100 µM
- GI50 [7]: 4.76 µM
- TGI [7]: > 100 µM
- GI50 [8]: 2.32 µM
- TGI [8]: 9.97 µM
- GI50 [9]: 2.86 µM
- TGI [9]: 21.4 µM
- GI50 [10]: 3.9 µM
- TGI [10]: 25.4 µM
- GI50 [11]: 3.61 µM
- TGI [11]: 14.4 µM
- GI50 [12]: 2.58 µM
- TGI [12]: > 100 µM
- GI50 [13]: 5.04 µM
- TGI [13]: 68.5 µM
- GI50 [14]: 2.64 µM
- TGI [14]: 20.5 µM
- GI50 [15]: 3.1 µM
- TGI [15]: > 100 µM
- GI50 [16]: 3.7 µM
- TGI [16]: > 100 µM
- GI50 [17]: 3.23 µM
- TGI [17]: 20.8 µM
- GI50 [18]: 6.31 µM
- TGI [18]: 33.8 µM
- GI50 [19]: 2.89 µM
- TGI [19]: 21.5 µM
- GI50 [20]: 3.2 µM
- TGI [20]: 79.3 µM
- GI50 [21]: 3.22 µM
- TGI [21]: > 100 µM
- GI50 [22]: 3.06 µM
- TGI [22]: > 100 µM
- GI50 [23]: 4.64 µM
- TGI [23]: > 100 µM
- GI50 [24]: 3 µM
- TGI [24]: > 100 µM
- GI50 [25]: 3.06 µM
- TGI [25]: > 100 µM
- GI50 [26]: 3.05 µM
- TGI [26]: 83.8 µM
- GI50 [27]: 3.04 µM
- TGI [27]: > 100 µM
- GI50 [28]: 3.69 µM
- TGI [28]: > 100 µM
- GI50 [29]: 1.69 µM
- TGI [29]: 7.67 µM
- GI50 [30]: 3.58 µM
- TGI [30]: 86.8 µM
- GI50 [31]: 2.9 µM
- TGI [31]: 29 µM
- GI50 [32]: 5.52 µM
- TGI [32]: > 100 µM
- GI50 [33]: 1.52 µM
- TGI [33]: 6.12 µM
- GI50 [34]: 5.84 µM
- TGI [34]: > 100 µM
- GI50 [35]: 8.85 µM
- TGI [35]: > 100 µM
- GI50 [36]: 2.44 µM
- TGI [36]: 8.76 µM
- GI50 [37]: 5.35 µM
- TGI [37]: > 100 µM
- GI50 [38]: 4.03 µM
- TGI [38]: > 100 µM
- GI50 [39]: 3.03 µM
- TGI [39]: > 100 µM
- GI50 [40]: 3.59 µM
- TGI [40]: 97.1 µM
- GI50 [41]: 2.41 µM
- TGI [41]: 9.72 µM
- GI50 [42]: 4.55 µM
- TGI [42]: > 100 µM
- GI50 [43]: 2.66 µM
- TGI [43]: > 100 µM
- GI50 [44]: 3.63 µM
- TGI [44]: > 100 µM
- GI50 [45]: 3.04 µM
- TGI [45]: 11.1 µM
- GI50 [46]: 2.57 µM
- TGI [46]: > 100 µM
- GI50 [47]: 3.79 µM
- TGI [47]: > 100 µM
- GI50 [48]: 3.34 µM
- TGI [48]: 71.5 µM
- GI50 [49]: 3.98 µM
- TGI [49]: 26.9 µM
- GI50 [50]: 2.83 µM
- TGI [50]: 9.83 µM
- GI50 [51]: 4.87 µM
- TGI [51]: > 100 µM
- GI50 [52]: 3.14 µM
- TGI [52]: 73.3 µM
- GI50 [53]: 3.26 µM
- TGI [53]: 33.9 µM
- GI50 [54]: 3.83 µM
- TGI [54]: 36.2 µM
- GI50 [55]: 2.71 µM
- TGI [55]: 24.7 µM
- GI50 [56]: 2.51 µM
- TGI [56]: 16.3 µM
